Structures are written as SMILES. Like-named read-outs stand apart in the source and are kept apart here.

As a reminder, the EC50 is the concentration needed to bring the measured effect to its halfway point.

What all share (type): biochemical
The target in assay [1] is T1, NMDAR2A expressing HEK cell membranes (Homo sapiens, UniProt Q05586+Q12879).
T1 construct: expressed in transfected cells; host or cells: HEK cells (membrane extract)
Put plainly: NMDAR agonist assay, [3H]MK-801 binding, NMDAR2A. As to conditions: for EC50: [3H]MK-801 binding; for Emax: relative to 1 mM glycine. On the procedure: (§1) (nonequilibrium conditions).
(§2) The baseline value was determined from the best fit curve of the DPM values modeled using the GraphPad program and the log(agonist) vs. response(three parameters) algorithm was then subtracted from all points in the dataset.

The target of assay [2] is T2, NMDAR2B expressing HEK cell membranes (Homo sapiens, UniProt Q05586+Q13224).
T2 construct: expressed in transfected cells; host or cells: HEK cells (membrane extract)
Put plainly: NMDAR agonist assay, [3H]MK-801 binding, NMDAR2B. As to conditions: for EC50: [3H]MK-801 binding; for Emax: relative to 1 mM glycine. On the procedure:
as §1, §2

Assay [3] addresses T3, NMDAR2B expressing HEK cell membranes (Homo sapiens, UniProt Q13224).
T3 construct: expressed in transfected cells; host or cells: HEK cells (membrane extract)
The assay can be described thus: NMDAR agonist assay, [3H]MK-801 binding, NMDAR2B. As to conditions: 50 μM glutamate; for EC50: [3H]MK-801 binding, read-out: NMDAR2B log EC50 (converted). Here is the method: as §1, §2

The mark [4] stands for this setting: 50 μM glutamate, read-out: NMDAR2A: log EC50 (converted).
The mark [5] stands for this setting: 50 μM glutamate, read-out: NMDAR2A: % maximal [3H]MK-801 binding relative to 1 mM glycine.
Where [6] appears, read: 50 μM glutamate, read-out: NMDAR2B log EC50 (converted).
The mark [7] stands for this setting: 50 μM glutamate, read-out: NMDAR2B: % maximal [3H]MK-801 binding relative to 1 mM glycine.
Setting [8] is: NMDAR2A: log EC50, 50 μM glutamate.
[9] abbreviates: read-out: NMDAR2A: % maximal [3H]MK-801 binding relative to 1 mM glycine, 50 μM glutamate.
Where [10] appears, read: NMDAR2B: log EC50, 50 μM glutamate.
Setting [11] is: read-out: NMDAR2B: % maximal [3H]MK-801 binding relative to 1 mM glycine, 50 μM glutamate.

T1 sequence (Q12879 23-1464, other chains not shown): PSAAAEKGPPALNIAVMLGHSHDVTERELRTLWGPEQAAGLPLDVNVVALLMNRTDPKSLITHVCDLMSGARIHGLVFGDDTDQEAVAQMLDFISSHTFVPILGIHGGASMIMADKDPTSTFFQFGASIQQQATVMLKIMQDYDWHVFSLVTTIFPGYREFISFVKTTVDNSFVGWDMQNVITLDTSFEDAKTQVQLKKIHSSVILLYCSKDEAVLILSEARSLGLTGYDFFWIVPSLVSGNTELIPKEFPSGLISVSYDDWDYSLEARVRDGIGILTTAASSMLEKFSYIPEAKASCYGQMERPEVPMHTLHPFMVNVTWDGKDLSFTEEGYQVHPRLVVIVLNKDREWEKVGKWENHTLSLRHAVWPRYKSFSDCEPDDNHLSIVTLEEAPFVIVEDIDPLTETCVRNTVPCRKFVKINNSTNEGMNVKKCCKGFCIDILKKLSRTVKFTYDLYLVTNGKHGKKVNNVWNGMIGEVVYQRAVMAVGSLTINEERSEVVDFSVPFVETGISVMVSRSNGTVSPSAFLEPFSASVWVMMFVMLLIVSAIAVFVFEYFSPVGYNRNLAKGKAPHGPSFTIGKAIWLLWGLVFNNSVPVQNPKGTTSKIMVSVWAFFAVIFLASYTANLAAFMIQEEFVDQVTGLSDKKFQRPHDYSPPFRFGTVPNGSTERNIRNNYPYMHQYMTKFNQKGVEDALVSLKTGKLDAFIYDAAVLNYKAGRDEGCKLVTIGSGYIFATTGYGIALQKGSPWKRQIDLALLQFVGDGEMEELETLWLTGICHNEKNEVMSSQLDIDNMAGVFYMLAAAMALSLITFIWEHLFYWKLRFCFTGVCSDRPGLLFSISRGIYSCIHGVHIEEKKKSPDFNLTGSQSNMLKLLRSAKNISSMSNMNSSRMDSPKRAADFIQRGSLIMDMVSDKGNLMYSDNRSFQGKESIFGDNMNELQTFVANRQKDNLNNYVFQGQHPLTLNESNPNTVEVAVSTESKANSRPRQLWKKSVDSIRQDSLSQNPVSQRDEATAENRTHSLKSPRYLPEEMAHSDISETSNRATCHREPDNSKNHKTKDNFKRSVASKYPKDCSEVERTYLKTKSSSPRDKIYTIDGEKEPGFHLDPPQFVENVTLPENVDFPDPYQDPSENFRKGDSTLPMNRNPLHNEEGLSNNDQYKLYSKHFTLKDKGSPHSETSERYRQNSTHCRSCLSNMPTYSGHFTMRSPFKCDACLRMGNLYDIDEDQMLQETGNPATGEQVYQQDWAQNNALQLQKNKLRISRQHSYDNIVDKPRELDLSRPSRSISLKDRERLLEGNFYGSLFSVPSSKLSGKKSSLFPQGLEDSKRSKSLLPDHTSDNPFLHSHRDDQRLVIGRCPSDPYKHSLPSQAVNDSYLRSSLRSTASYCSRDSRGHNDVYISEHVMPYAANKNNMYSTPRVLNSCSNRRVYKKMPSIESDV
T3 sequence (Q13224 27-1484, other chains not shown): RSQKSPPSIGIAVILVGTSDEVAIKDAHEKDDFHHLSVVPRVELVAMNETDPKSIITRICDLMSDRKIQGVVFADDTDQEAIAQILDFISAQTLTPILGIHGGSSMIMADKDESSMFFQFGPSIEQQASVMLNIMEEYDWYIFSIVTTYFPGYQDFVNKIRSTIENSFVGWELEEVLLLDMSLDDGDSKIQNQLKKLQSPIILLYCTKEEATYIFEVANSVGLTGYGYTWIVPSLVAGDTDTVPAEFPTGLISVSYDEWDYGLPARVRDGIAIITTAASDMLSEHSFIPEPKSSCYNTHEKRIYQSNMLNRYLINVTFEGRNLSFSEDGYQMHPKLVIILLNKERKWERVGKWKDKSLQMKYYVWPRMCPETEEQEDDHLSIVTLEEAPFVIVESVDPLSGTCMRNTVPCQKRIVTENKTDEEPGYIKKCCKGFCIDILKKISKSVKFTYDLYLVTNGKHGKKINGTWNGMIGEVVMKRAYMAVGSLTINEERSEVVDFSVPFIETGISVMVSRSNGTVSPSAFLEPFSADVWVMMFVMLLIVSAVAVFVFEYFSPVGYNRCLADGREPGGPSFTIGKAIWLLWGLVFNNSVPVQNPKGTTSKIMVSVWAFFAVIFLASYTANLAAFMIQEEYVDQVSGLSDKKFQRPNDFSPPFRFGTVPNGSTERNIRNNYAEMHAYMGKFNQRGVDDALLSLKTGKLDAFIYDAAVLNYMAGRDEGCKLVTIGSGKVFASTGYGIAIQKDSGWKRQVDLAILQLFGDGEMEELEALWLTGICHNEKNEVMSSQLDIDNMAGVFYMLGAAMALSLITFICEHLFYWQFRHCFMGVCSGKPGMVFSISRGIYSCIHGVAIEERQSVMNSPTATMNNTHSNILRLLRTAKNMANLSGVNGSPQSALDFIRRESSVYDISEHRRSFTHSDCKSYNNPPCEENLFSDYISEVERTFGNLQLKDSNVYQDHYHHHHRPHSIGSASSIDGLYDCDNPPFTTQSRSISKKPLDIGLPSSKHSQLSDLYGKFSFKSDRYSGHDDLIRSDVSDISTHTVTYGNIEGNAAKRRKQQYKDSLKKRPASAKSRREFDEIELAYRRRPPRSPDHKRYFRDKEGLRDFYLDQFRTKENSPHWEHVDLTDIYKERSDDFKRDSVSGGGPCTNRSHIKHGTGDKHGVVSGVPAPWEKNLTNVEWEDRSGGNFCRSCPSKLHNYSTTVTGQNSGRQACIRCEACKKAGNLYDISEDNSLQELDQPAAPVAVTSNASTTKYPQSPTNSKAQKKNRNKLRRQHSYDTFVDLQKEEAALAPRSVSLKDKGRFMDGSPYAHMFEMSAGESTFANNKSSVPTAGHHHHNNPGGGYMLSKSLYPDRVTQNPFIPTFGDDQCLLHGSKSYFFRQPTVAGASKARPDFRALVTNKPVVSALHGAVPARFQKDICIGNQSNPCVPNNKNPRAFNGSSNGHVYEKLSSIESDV
T2 sequence (Q13224 27-1484, other chains not shown): as above

Consider `CC(C)C(=O)N1C2(CCC13CNC3=O)CNC2=O` (single isomer, unassigned) [AG, 5-isobutyryl-2,5,8-triazadispiro[3.1.36.24]undecane-1,7-dione], for which the results for the EC50 in assay [1] (setting [4]) and in assay [2] (setting [6]) were less than 1 nM and more than 100 nM, respectively. The Emax in assay [1] (setting [5]) is less than 100%. Besides, the “NMDAR2B: % maximal [3H]MK-801 binding relative to 1 mM glycine” value in assay [3] was “− (−=0)”.
For `C[C@@H](O)[C@H](NC(=O)C1CCC2(CNC2=O)N1Cc1ccccc1)C(N)=O` (single isomer, unassigned) [AL-1] the same measures were less than 1 nM, more than 100 nM, less than 100% and “− (−=0)”.
Turning to `C[C@@H](O)[C@H](NC(=O)C1CCC2(CNC2=O)N1C)C(N)=O` (single isomer, unassigned) [BC], the Emax is less than 100% in assay [1] (setting [5]) and more than 100% in assay [2] (setting [7]). In addition, the EC50 in assay [2] (setting [6]) was less than 1 nM.
Turning to `CNC(=O)[C@@H](NCC1CCC2(CN(OCc3ccccc3)C2=O)N1C(=O)OC(C)(C)C)[C@@H](C)O` (single isomer, unassigned) [BM], the EC50 in assay [1] (setting [4]) and in assay [2] (setting [6]) was more than 100 nM throughout. Also, the Emax in assay [1] (setting [5]) and in assay [2] (setting [7]) was 0% each time.
As to `COc1ccc(CN2CC3(CC(N[C@H](C(=O)O)[C@@H](C)O)CN3C(=O)OC(C)(C)C)C2=O)cc1` (single isomer, unassigned) [CE, (5-(tert-butoxycarbonyl)-2-(4-methoxybenzyl)-1-oxo-2,5-diazaspiro[3.4]octan-7-yl)-L-threonine], the EC50 in assay [1] (setting [4]) is more than 100 nM; in assay [2] (setting [6]), less than 1 nM. In addition, the Emax in assay [1] (setting [5]) was 0%; in assay [2] (setting [7]), more than 100%.
For the compound `CC(O)C(NCC1CCC2(CNC2=O)N1)C(N)=O` (single isomer, unassigned) [CM], the EC50 in assay [1] (setting [4]) and in assay [2] (setting [6]) was less than 1 nM in each case. For the same compound, the Emax in assay [1] (setting [5]) and in assay [2] (setting [7]) was less than 100% each time.
For `CNC(=O)C(NCC1CCC2(CN(OCc3ccccc3)C2=O)N1)C(C)O` (single isomer, unassigned) [CO], the EC50 in assay [1] (setting [4]) and in assay [2] (setting [6]) was less than 1 nM throughout. The Emax in assay [1] (setting [5]) and in assay [2] (setting [7]) was less than 100% in each case.
Regarding `CNC(=O)C(C(C)O)N(C)CC1CCC2(CN(OCc3ccccc3)C2=O)N1` (single isomer, unassigned) [CW], the EC50 in assay [1] (setting [4]) and in assay [2] (setting [6]) was less than 1 nM each time. Further, the Emax in assay [1] (setting [5]) and in assay [2] (setting [7]) was less than 100% throughout.
Regarding `NC(=O)C1CCC2(CN(OCc3ccccc3)C2=O)N1` (single isomer, unassigned) [CY, 2-(benzyloxy)-1-oxo-2,5-diazaspiro[3.4]octane-6-carboxamide], the EC50 in assay [1] (setting [4]) and in assay [2] (setting [6]) was less than 1 nM each time. Further, the Emax in assay [1] (setting [5]) and in assay [2] (setting [7]) was less than 100% throughout.
For `NC(=O)C1CCC2(CNC2=O)N1` (single isomer, unassigned) [DA, 1-oxo-2,5-diazaspiro[3.4]octane-6-carboxamide], the EC50 in assay [1] (setting [4]) and in assay [2] (setting [6]) was less than 1 nM throughout. Besides, the Emax in assay [1] (setting [5]) and in assay [2] (setting [7]) was less than 100% throughout.
As to `NC(=O)C1CCC2(CNC2=O)N1` (single isomer, unassigned) [DB, 1-oxo-2,5-diazaspiro[3.4]octane-6-carboxamide], the EC50 in assay [3] is less than 1 nM.
Turning to `CC(C)CN1C(C(N)=O)CCC12CNC2=O` (single isomer, unassigned) [DC, 5-isobutyl-1-oxo-2,5-diazaspiro[3.4]octane-6-carboxamide], the EC50 in assay [1] (setting [4]) and in assay [2] (setting [6]) was less than 1 nM each time. The Emax is less than 100% in assay [1] (setting [5]) and more than 100% in assay [2] (setting [7]).
Regarding `NC(=O)C1CCC2(CNC2=O)N1Cc1ccccc1` (single isomer, unassigned) [DE, 5-benzyl-1-oxo-2,5-diazaspiro[3.4]octane-6-carboxamide], the EC50 in assay [1] (setting [4]) and in assay [2] (setting [6]) was less than 1 nM in each case. The Emax in assay [1] (setting [5]) and in assay [2] (setting [7]) was less than 100% in each case.
In the case of `NC(=O)C1CCC2(CNC2=O)N1Cc1ccc(F)cc1` (single isomer, unassigned) [DG, 5-(4-fluorobenzyl)-1-oxo-2,5-diazaspiro[3.4]octane-6-carboxamide], the EC50 in assay [1] (setting [4]) was less than 1 nM. The Emax in assay [1] (setting [5]) and in assay [2] (setting [7]) was less than 100% each time.
On to `O=C1NCC12CCC1(CNC1=O)N2Cc1ccc(F)cc1` (single isomer, unassigned) [DI, 5-(4-fluorobenzyl)-2,5,8-triazadispiro[3.1.36.24]undecane-1,7-dione], for which the Emax in assay [1] (setting [5]) and in assay [2] (setting [7]) was less than 100% throughout. The EC50 in assay [2] (setting [6]) was less than 1 nM.
For `O=C1NCC12CCC1(CNC1=O)N2Cc1ccc(F)cc1` (single isomer, unassigned) [DJ, 5-(4-fluorobenzyl)-2,5,8-triazadispiro[3.1.36.24]undecane-1,7-dione], the EC50 in assay [1] (setting [4]) and in assay [3] was less than 1 nM throughout.
In the case of `CN1C2(CCC13CNC3=O)CNC2=O` (centres unmarked) [AB-3, 5-methyl-2,5,8-triazadispiro[3.1.36.24]undecane-1,7-dione], the EC50 in assay [1] (setting [8]) and in assay [2] (setting [10]) was more than 100 nM throughout. Also, the Emax in assay [1] (setting [9]) and in assay [2] (setting [11]) was 0% throughout.
For `CC(C)CN1C2(CCC13CNC3=O)CNC2=O` (centres unmarked) [AE, 5-isobutyl-2,5,8-triazadispiro[3.1.36.24]undecane-1,7-dione], the EC50 in assay [1] (setting [8]) and in assay [2] (setting [10]) was more than 100 nM in each case. In addition, the Emax in assay [1] (setting [9]) and in assay [2] (setting [11]) was 0% throughout.
Turning to `CC(C)C(=O)N1C[C@@H](C(N)=O)C[C@]12CNC2=O` [AT, (4R,7S)-5-isobutyryl-1-oxo-2,5-diazaspiro[3.4]octane-7-carboxamide], the Emax in assay [1] (setting [5]) is less than 100%; in assay [2] (setting [7]), 0%. Moreover, the EC50 in assay [2] (setting [6]) was more than 100 nM.
Consider `C[C@@H](O)[C@H](NCC1CCC2(CN(OCc3ccccc3)C2=O)N1C(=O)OC(C)(C)C)C(N)=O` (some centres unmarked) [BI], for which the EC50 in assay [1] (setting [4]) and in assay [2] (setting [6]) was more than 100 nM each time. For the same compound, the Emax in assay [1] (setting [5]) and in assay [2] (setting [7]) was 0% each time.
Turning to `C[C@@H](O)[C@H](NCC1CCC2(CNC2=O)N1C(=O)OC(C)(C)C)C(N)=O` (some centres unmarked) [BK], the EC50 in assay [1] (setting [4]) was more than 100 nM. Moreover, the Emax in assay [1] (setting [5]) is 0%; in assay [2] (setting [7]) it was less than 100%.
As for `C[C@@H](O)[C@H](NCC1CCC2(CNC2=O)N1C(=O)OC(C)(C)C)C(N)=O` (some centres unmarked) [BL], the EC50 in assay [2] (setting [6]) was less than 1 nM.
Regarding `CNC(=O)[C@@H](NCC1CCC2(CNC2=O)N1C(=O)OC(C)(C)C)[C@@H](C)O` (some centres unmarked) [BP], the EC50 in assay [1] (setting [4]) and in assay [2] (setting [6]) was more than 100 nM throughout. For the same compound, the Emax in assay [1] (setting [5]) and in assay [2] (setting [7]) was 0% in each case.
Turning to `C[C@@H](O)[C@@H](C(N)=O)N(C)CC1CCC2(CN(OCc3ccccc3)C2=O)N1C(=O)OC(C)(C)C` (stereo partly drawn) [BU, tert-butyl 6-((((2S,3R)-1-amino-3-hydroxy-1-oxobutan-2-yl)(methyl)amino)methyl)-2-(benzyloxy)-1-oxo-2,5-diazaspiro[3.4]octane-5-carboxylate], the EC50 in assay [1] (setting [4]) and in assay [2] (setting [6]) was less than 1 nM each time. Besides, the Emax in assay [1] (setting [5]) and in assay [2] (setting [7]) was less than 100% each time.
For `C[C@@H](O)[C@@H](C(=O)N(C)C)N(C)CC1CCC2(CN(OCc3ccccc3)C2=O)N1C(=O)OC(C)(C)C` (some centres unmarked) [BW], the EC50 in assay [1] (setting [4]) and in assay [2] (setting [6]) was less than 1 nM throughout. The Emax was less than 100% in assay [1] (setting [5]) and more than 100% in assay [2] (setting [7]).
As for `COc1ccc(CN2CC3(CC(N[C@H](C(N)=O)[C@@H](C)O)CN3C(=O)OC(C)(C)C)C2=O)cc1` (stereo partly drawn) [CA, tert-butyl 7-(((2S,3R)-1-amino-3-hydroxy-1-oxobutan-2-yl)amino)-2-(4-methoxybenzyl)-1-oxo-2,5-diazaspiro[3.4]octane-5-carboxylate], the EC50 in assay [1] (setting [4]) and in assay [2] (setting [6]) was more than 100 nM in each case. The Emax in assay [1] (setting [5]) and in assay [2] (setting [7]) was 0% each time.
On to `COc1ccc(CN2CC3(CC(N[C@H](C(N)=O)[C@@H](C)O)CN3)C2=O)cc1` (some centres unmarked) [CC], for which the Emax is less than 100% in assay [1] (setting [5]) and 0% in assay [2] (setting [7]). Moreover, in assay [2] (setting [6]), the EC50 is more than 100 nM.
Regarding `COc1ccc(CN2CC3(CC(N[C@H](C(N)=O)[C@@H](C)O)CN3)C2=O)cc1` (some centres unmarked) [CD], the EC50 in assay [1] (setting [4]) was less than 1 nM.
On to `COc1ccc(CN2CC3(CC(N[C@H](C(=O)O)[C@@H](C)O)CN3C(=O)OC(C)(C)C)C2=O)cc1` (stereo partly drawn) [CF, (5-(tert-butoxycarbonyl)-2-(4-methoxybenzyl)-1-oxo-2,5-diazaspiro[3.4]octan-7-yl)-L-threonine], for which the EC50 was more than 100 nM in assay [1] (setting [4]) and less than 1 nM in assay [2] (setting [6]). The Emax in assay [1] (setting [5]) was 0%; in assay [2] (setting [7]) it was less than 100%.
`COc1ccc(CN2C[C@@]3(C[C@H](C(N)=O)CN3CC(C)C)C2=O)cc1` [CI, (4S,7S)-5-isobutyl-2-(4-methoxybenzyl)-1-oxo-2,5-diazaspiro[3.4]octane-7-carboxamide]: the Emax in assay [1] (setting [5]) and in assay [2] (setting [7]) was less than 100% throughout. Besides, the EC50 in assay [2] (setting [6]) was less than 1 nM.
For the compound `COc1ccc(CN2CC3(C[C@H](C(N)=O)CN3CC(C)C)C2=O)cc1` (some centres unmarked) [CJ], the Emax in assay [1] (setting [5]) and in assay [2] (setting [7]) was less than 100% in each case.

These data come from patent publication US11028095B2, “Spiro-lactam and bis-spiro-lactam NMDA receptor modulators and uses thereof” (Aptinyx Inc., priority 2016, dated 2021).
